Data on one compound can be found in patent US8822698B2, “Aminoacid derivatives, their process of preparation and their therapeutical uses as inhibitors of oncogenic signals by the Met family” (Universite D'Aix-Marseille, priority 2009, dated 2014).

Entries after “also recorded” stand apart in the source; their conditions may differ.

Series [1] deals with GTL-16 cells. Put plainly: Soft agar anchorage-independent growth (in vitro tumorigenesis), GTL-16. The format is cell-based, human. The procedure:
(§1) MDCK cells were grown in Dulbecco's modified Eagle's medium (DMEM) (Gibco BRL) containing 4 mM L-glutamine and supplemented with 2% (v/v) foetal bovine serum (Gibco BRL), 100 U/mL penicillin, and 100 μg/mL streptomycin. Cells were plated at a density of 1000 cells per well in 24-well microplates and allowed to settle overnight at 37° C. in a humidified atmosphere of 5% CO2 prior to treatments. MCF10A human breast cells, MDA-MB231 human breast cancer cells, GTL-16 human gastric carcinoma cells, HepG2 human hepatocellular carcinoma cells, U-87 human glioblastoma-astrocytoma cells and LLC Lewis lung carcinoma cells were grown in RPMI medium (Gibco BRL) containing 4 mM L-glutamine and supplemented with 2% (v/v) foetal bovine serum (Gibco BRL), 100 U/mL penicillin, and 100 μg/mL streptomycin and kept at 37° C. in a humidified atmosphere of 5% CO2.
For scattering assays, MDCK cells were pre-incubated with compounds for 2 hours at 0.1-100 μM concentrations at 37° C. in a humidified atmosphere of 5% CO2, followed by 24 hr stimulation with 20 ng/ml HGF (R&D Systems), as previously described (Patane et al., Biochem Biophys Res Commun 375, 184-189, 2008). The cells were further incubated at 37° C. in an atmosphere of 5% CO2 for 24-48 hours, washed with phosphate-buffered saline (PBS; Gibco BRL), and fixed in PFA (Sigma). The quantification of scattering response was performed by counting the number of cells with scattered morphology in 30 independent colonies. The […] corresponds to the concentration of compounds leading to a 50% inhibition of Met-triggered cell scattering. Active compounds were assayed to impair scattering response also on human breast MCF10A cells following the same procedure. For survival assays, GTL-16, HepG2 and U-87 cells were cultured in serum-free media for 24 hours prior to compound addition for 48 hours. Viability was assessed with the Cell Titer Glo Luminescent Assay (Promega). For in vitro tumorigenesis, soft agar growth assays were preformed using GTL-16, HepG2, and U-87 cells, as previously described (Patane et al., Cancer Res 66, 4750-4757, 2006). […]

For series [2], the system named is HepG2 cells. Kind of series: Soft agar anchorage-independent growth (in vitro tumorigenesis), HepG2. The note with it: Homo sapiens, read-out: HepG2 IC 50. In kind it is cell-based. The procedure: as §1
For scattering assays, MDCK cells were pre-incubated with compounds for 2 hours at 0.1-100 μM concentrations at 37° C. in a humidified atmosphere of 5% CO2, followed by 24 hr stimulation with 20 ng/ml HGF (R&D Systems), as previously described (Patane et al., Biochem Biophys Res Commun 375, 184-189, 2008). […] The quantification of scattering response was performed by counting the number of cells with scattered morphology in 30 independent colonies. […] Viability was assessed with the Cell Titer Glo Luminescent Assay (Promega). […]

Series [3] deals with MDCK cells. Put plainly: Toxicity observed in the cell scattering screening. The format is cell-based. The procedure:
(§2) For scattering assays, MDCK cells were pre-incubated with compounds for 2 hours at 0.1-100 μM concentrations at 37° C. in a humidified atmosphere of 5% CO2, followed by 24 hr stimulation with 20 ng/ml HGF (R&D Systems), as previously described (Patane et al., Biochem Biophys Res Commun 375, 184-189, 2008). The cells were further incubated at 37° C. in an atmosphere of 5% CO2 for 24-48 hours, washed with phosphate-buffered saline (PBS; Gibco BRL), and fixed in PFA (Sigma). The quantification of scattering response was performed by counting the number of cells with scattered morphology in 30 independent colonies. The […] corresponds to the concentration of compounds leading to a 50% inhibition of Met-triggered cell scattering. Active compounds were assayed to impair scattering response also on human breast MCF10A cells following the same procedure. For survival assays, GTL-16, HepG2 and U-87 cells were cultured in serum-free media for 24 hours prior to compound addition for 48 hours. Viability was assessed with the Cell Titer Glo Luminescent Assay (Promega). For in vitro tumorigenesis, soft agar growth assays were preformed using GTL-16, HepG2, and U-87 cells, as previously described (Patane et al., Cancer Res 66, 4750-4757, 2006).
Compounds of examples 1 (XIII), 2 (XIV), 4 (XVI), 5 (XVII), and 6 (XVIII) in particular elicit inhibitory activity on Met-triggered cell scattering. […] The SU11274 (Met inhibitor; Sugen) was used as reference compound. […] These findings were further supported by analysing the inhibitory activity of compounds on breast cells. […] Altogether, these studies identify a new class of compounds of general formula (I), which are able to interfere with Met-triggered cell scattering.

A short description of series [4]: Toxicity evaluation in vivo (body and organ weight). Also noted: species or system mice. The procedure:
The weight of nude mice treated with the compound of example 4 (30 mg kg-1) or vehicle was measured before, during and after treatment. To evaluate the weight of heart, spleen, kidney, and liver, mice were sacrified after 21 days of treatment, organs were dissected, rinsed in PBS, and weight was measured.
We evaluated whether compounds of general formula elicited toxic effects in vivo by following mouse weight before, during and after treatment. […] We also evaluated the weight of heart, spleen, kidney and liver of mice treated with the compound of example 4 or vehicle.

The test system of series [5] is Met-triggered cell scattering, MDCK cells. Kind of series: HGF-induced MDCK cell scattering assay. The format is cell-based. The settings on record: Canis lupus familiaris; MDCK cells, 20 ng/ml HGF; read-out: IC50 scattering inhibition. The procedure: as §1, §2
Compounds were first submitted to a biological screening of cell motility, namely scattering response. MDCK epithelial cells acquire a “scattered phenotype” following stimulation by the Met ligand, HGF (Chan et al., J Biomol Screen. 13, 847-854, 2008; Corso et al., Trends Mol Med 11, 284-292, 2005; Patane et al., Biochem Biophys Res Commun 375, 184-189, 2008), allowing direct evaluation of compounds on Met functions. The Met inhibitor […] was used as control in all assays (Schiering et al., Proc Natl Acad Sci USA 100, 12654-12659, 2003).

Consider `O=C(Cc1cc(C(F)(F)F)cc(C(F)(F)F)c1)N[C@@H](Cc1ccccc1)C(=O)Nc1ccc(-c2cn3c(n2)sc2ccccc23)cc1` [Example 4, (S)-2-(3,5-bis(trifluoromethyl)phenylacetamido)-3-phenyl-N-[4-(imidazo[2,1-b]benzothiazol-2-yl)phenyl]propanamide], for which the Met-triggered anchorage-independent growth result in series [1] (GTL-16 cells, dose dependent, listed as XVI) was “severely reduced; also recorded: severely affected”. Besides, the IC50 in series [1] (Homo sapiens, soft agar growth, GTL-16) was 811 nM; in series [2], 321 nM; in series [5], 171 nM. For the same compound, the “Concentration at which toxicity was or was not observed” value in series [3] was found to be 100 µM. The same compound returned a Toxicity in series [3] (Table 1, scattering screening) greater than 50 µM. In addition, the “weight of heart, spleen, kidney and liver” value in series [4] (after 21 days of treatment, versus vehicle) was “No differences”. Further, in series [4] (daily treated, 30 mg kg-1, compared to vehicle), the weight of mice entry is listed as “No significant changes”.
